Among the data in patent publication US20220217980A1, “DITHIOCARBAMATE FUNGICIDE MACROMOLECULAR COMPLEXES” (Adama Makhteshim Ltd., priority 2019, published 2022) are solubility and zeta potential values, retold here.

The structures appear in SMILES notation.

The conditions of data set [1]: at 20° C.; cited from earlier work.
Data set [2] is described as follows: Zeta potential analysis of mancozeb dispersions with and without polycations (Zetasizer Nano). It counts as physicochemical. An excerpt: Zeta potential is an indicator for complexation and stability of a dispersion. A zeta potential close to zero between −10 mV and +10 Mv indicates a maximum interaction between polyelectrolytes and MZ. The Zeta potential is the charge that develops at the interface between a solid surface and its liquid medium. Zeta potential values give a value of the net charge (in mV) on particle surfaces.
To a 1 g/l aqueous polycation solution (chitosan (CTS), ϵ-poly-L-lysine or polyallylamine (PAA)), 5, 40, 60, 80 and 120 g/l of MZ powder was added, resulting in ratios 1:5, 1:40, 1:60, 1:80 and 1:120 (based on weigh/weight % of dry material), respectively. Mancozeb added to an aqueous solution served as a control. The dispersions were mixed for 10 min on a vortexing device.
The different polycation-mancozeb incubations were analyzed for the Zeta potential with a Zetasizer Nano (Malvern Instruments. United Kingdom).

Consider `S=C([S-])NCCNC(=S)[S-].[Mn+2].[Zn]` [Mancozeb, zinc; manganese(2+); N-[2-(sulfidocarbothioylamino)ethyl]carbamodithioate], for which the solubility entry in data set [1] is “about 6.2 mg per liter”. The zeta potential in data set [2] (ratio polycation:mancozeb 1:5) is given as −18.2 mV; in data set [2] (ratio polycation:mancozeb 1:40), −20.6 mV; in data set [2] (ratio polycation:mancozeb 1:60), −20.5 mV; in data set [2] (ratio polycation:mancozeb 1:80), −18.9 mV; in data set [2] (ratio polycation:mancozeb 1:120), −18.3 mV.
